Literature values as cited in article PMC7529705 (Biochemistry, 2020).
“Also recorded” adds a separate entry of the source. Where no end group is shown, it is not given here. me2a = asymmetric dimethylation (Arg)

System: WDR5
Conditions: previously reported

Question: For “H3R2me2a: Histone H3 1–7aa peptide, asymmetrically dimethylated at Arg2 (AR(me2a)TKQTA; UniProt P68431 2-8, looked up, fragment)”, which “Interaction with WDR5” value is on record?
Answer: The value was “not to interact; also recorded: does not interact”.
